Data published in PubChem BioAssay AID1963972 (Molecular Pharmacology Branch, DTP, NCI, 2024).
Where “and” joins values, the source holds several entries; their conditions need not be identical. Equal entries are not always repeated.

Tested on: 945468-187-T-J2-PDC spheroids viability
Test: Anticancer human tumor 945468-187-T-J2-PDC patient-derived rectal carcinoma cell line growth inhibition [PI3K]
Settings: spheroids with HUVEC and MSC; for viability, T/C: stronger effect = lower value
In short: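 Combination activity was assessed by viability in multicellular tumor spheroids carrying HUVEC and MSC components. Agents were tested with PI3K inhibitors from a Cmax-based top dose (or 10 microM) downward in half-log increments.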

[1] = curve of first compound, second compound 0.0316 µM
[2] = curve of first compound, second compound 0.1 µM
[3] = curve of first compound, second compound 0.316 µM
[4] = curve of first compound, second compound 1 µM
[5] = curve of first compound, second compound 3.16 µM
[6] = curve of first compound, second compound 10 µM
[7] = second compound 0.0316 µM, first compound 0.000316 µM
[8] = second compound 0.0316 µM, first compound 0.001 µM
[9] = second compound 0.0316 µM, first compound 0.00316 µM
[10] = second compound 0.0316 µM, first compound 0.01 µM
[11] = second compound 0.0316 µM, first compound 0.0316 µM
[12] = second compound 0.0316 µM, first compound 0.1 µM
[13] = second compound 0.1 µM, first compound 0.000316 µM
[14] = second compound 0.1 µM, first compound 0.001 µM
[15] = second compound 0.1 µM, first compound 0.00316 µM
[16] = second compound 0.1 µM, first compound 0.01 µM
[17] = second compound 0.1 µM, first compound 0.0316 µM
[18] = second compound 0.1 µM, first compound 0.1 µM
[19] = second compound 0.316 µM, first compound 0.000316 µM
[20] = second compound 0.316 µM, first compound 0.001 µM
[21] = second compound 0.316 µM, first compound 0.00316 µM
[22] = second compound 0.316 µM, first compound 0.01 µM
[23] = second compound 0.316 µM, first compound 0.0316 µM
[24] = second compound 0.316 µM, first compound 0.1 µM
[25] = second compound 1 µM, first compound 0.000316 µM
[26] = second compound 1 µM, first compound 0.001 µM
[27] = second compound 1 µM, first compound 0.00316 µM
[28] = second compound 1 µM, first compound 0.01 µM
[29] = second compound 1 µM, first compound 0.0316 µM
[30] = second compound 1 µM, first compound 0.1 µM
[31] = second compound 3.16 µM, first compound 0.000316 µM
[32] = second compound 3.16 µM, first compound 0.001 µM
[33] = second compound 3.16 µM, first compound 0.00316 µM
[34] = second compound 3.16 µM, first compound 0.01 µM
[35] = second compound 3.16 µM, first compound 0.0316 µM
[36] = second compound 3.16 µM, first compound 0.1 µM
[37] = second compound 10 µM, first compound 0.000316 µM
[38] = second compound 10 µM, first compound 0.001 µM
[39] = second compound 10 µM, first compound 0.00316 µM
[40] = second compound 10 µM, first compound 0.01 µM
[41] = second compound 10 µM, first compound 0.0316 µM
[42] = second compound 10 µM, first compound 0.1 µM
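Further: spheroids exposed to compounds for seven days before reading.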

## CC(=O)c1c(C)c2cnc(Nc3ccc(N4CCNCC4)cn3)nc2n(C2CCCC2)c1=O + CC(Nc1ncnc2nc[nH]c12)c1cc2cccc(Cl)c2c(=O)n1-c1ccccc1
[1]
  IC50: > 0.1 µM
[2]
  IC50: > 0.1 µM
[3]
  IC50: > 0.1 µM
[4]
  IC50: > 0.1 µM
[5]
  IC50: > 0.1 µM
[6]
  IC50: > 0.1 µM
[7]
  viability, T/C: 104%
[8]
  viability, T/C: 80%
[9]
  viability, T/C: 101%
[10]
  viability, T/C: 100%
[11]
  viability, T/C: 90%
[12]
  viability, T/C: 122%
[13]
  viability, T/C: 98.9%
[14]
  viability, T/C: 101%
[15]
  viability, T/C: 89.4%
[16]
  viability, T/C: 80.3%
[17]
  viability, T/C: 104%
[18]
  viability, T/C: 101%
[19]
  viability, T/C: 82.3%
[20]
  viability, T/C: 108%
[21]
  viability, T/C: 103%
[22]
  viability, T/C: 98.4%
[23]
  viability, T/C: 113%
[24]
  viability, T/C: 88.7%
[25]
  viability, T/C: 91.2%
[26]
  viability, T/C: 103%
[27]
  viability, T/C: 85.4%
[28]
  viability, T/C: 89.8%
[29]
  viability, T/C: 90.7%
[30]
  viability, T/C: 109%
[31]
  viability, T/C: 87.8%
[32]
  viability, T/C: 87%
[33]
  viability, T/C: 102%
[34]
  viability, T/C: 99.5%
[35]
  viability, T/C: 111%
[36]
  viability, T/C: 118%
[37]
  viability, T/C: 101%
[38]
  viability, T/C: 100%
[39]
  viability, T/C: 101%
[40]
  viability, T/C: 87.9%
[41]
  viability, T/C: 99.5%
[42]
  viability, T/C: 121%

## CC1(C)CCC(Nc2ncc(C(F)(F)F)c(-c3c[nH]c4c(P(C)(C)=O)c(C#N)ccc34)n2)CN1 (configuration not stated)
Compound 0.0316 µM
  viability, T/C: 94.2% (2×) and 113% and 89.1%
Compound 0.1 µM
  viability, T/C: 96.6% [middle of 4 runs]
Compound 3.16 µM
  viability, T/C: 43% [middle of 4 runs]

## CCCS(=O)(=O)Nc1ccc(F)c(C(=O)c2c[nH]c3ncc(-c4ccc(Cl)cc4)cc23)c1F
Compound 0.0316 µM
  viability, T/C: 104% [middle of 4 runs]
Compound 0.1 µM
  viability, T/C: 88.8% [middle of 4 runs]
Compound 0.316 µM
  viability, T/C: 94% [middle of 4 runs]
Compound 1 µM
  viability, T/C: 99.4% [middle of 4 runs]
Compound 10 µM
  viability, T/C: 5.55% [middle of 4 runs]
Curve of compound
  IC50: 5.05 µM [middle of 4 runs]

## CCN1CCN(Cc2ccc(Nc3ncc(F)c(-c4cc(F)c5nc(C)n(C(C)C)c5c4)n3)nc2)CC1
Compound 0.00316 µM
  viability, T/C: 98.9% [middle of 4 runs]
Compound 0.316 µM
  viability, T/C: 98.3% [middle of 4 runs]
Compound 1 µM
  viability, T/C: 78% [middle of 4 runs]
Curve of compound
  IC50: > 1 µM

## Cn1ncnc1[C@H]1c2n[nH]c(=O)c3cc(F)cc(c23)N[C@@H]1c1ccc(F)cc1 + CC(Nc1ncnc2nc[nH]c12)c1cc2cccc(Cl)c2c(=O)n1-c1ccccc1
[1]
  IC50: > 0.1 µM
[2]
  IC50: > 0.1 µM
[3]
  IC50: > 0.1 µM
[4]
  IC50: > 0.1 µM
[5]
  IC50: > 0.1 µM
[6]
  IC50: > 0.1 µM
[7]
  viability, T/C: 100%
[8]
  viability, T/C: 106%
[9]
  viability, T/C: 85.3%
[10]
  viability, T/C: 93.1%
[11]
  viability, T/C: 87.3%
[12]
  viability, T/C: 89.8%
[13]
  viability, T/C: 89%
[14]
  viability, T/C: 90.3%
[15]
  viability, T/C: 88%
[16]
  viability, T/C: 88%
[17]
  viability, T/C: 103%
[18]
  viability, T/C: 109%
[19]
  viability, T/C: 115%
[20]
  viability, T/C: 102%
[21]
  viability, T/C: 130%
[22]
  viability, T/C: 97.5%
[23]
  viability, T/C: 121%
[24]
  viability, T/C: 96.8%
[25]
  viability, T/C: 88.8%
[26]
  viability, T/C: 100%
[27]
  viability, T/C: 84.7%
[28]
  viability, T/C: 108%
[29]
  viability, T/C: 103%
[30]
  viability, T/C: 110%
[31]
  viability, T/C: 120%
[32]
  viability, T/C: 108%
[33]
  viability, T/C: 116%
[34]
  viability, T/C: 128%
[35]
  viability, T/C: 99.4%
[36]
  viability, T/C: 111%
[37]
  viability, T/C: 117%
[38]
  viability, T/C: 103%
[39]
  viability, T/C: 112%
[40]
  viability, T/C: 105%
[41]
  viability, T/C: 102%
[42]
  viability, T/C: 109%
